From patent publication EP2236511A2, “LIGANDS OF ALPHA-ADRENOCEPTORS AND OF DOPAMINE, HISTAMINE, IMIDAZOLINE AND SEROTONIN RECEPTORS AND THE USE THEREOF” (priority 2007, dated 2009)

Key:
[1] = target: T1, adrenergic receptor α1A (Rattus norvegicus, UniProt P43140); test: Radioligand binding to adrenergic receptor α1A ([3H] Prazosin, rat submaxillary gland membranes); conditions: 10 µM ligand
T1 construct: membrane species from rat submaxillary glands (rat of Wistar breed) are prepared; from tissue; host or cells: rat (Wistar) submaxillary gland
T1 sequence (P43140 1-466): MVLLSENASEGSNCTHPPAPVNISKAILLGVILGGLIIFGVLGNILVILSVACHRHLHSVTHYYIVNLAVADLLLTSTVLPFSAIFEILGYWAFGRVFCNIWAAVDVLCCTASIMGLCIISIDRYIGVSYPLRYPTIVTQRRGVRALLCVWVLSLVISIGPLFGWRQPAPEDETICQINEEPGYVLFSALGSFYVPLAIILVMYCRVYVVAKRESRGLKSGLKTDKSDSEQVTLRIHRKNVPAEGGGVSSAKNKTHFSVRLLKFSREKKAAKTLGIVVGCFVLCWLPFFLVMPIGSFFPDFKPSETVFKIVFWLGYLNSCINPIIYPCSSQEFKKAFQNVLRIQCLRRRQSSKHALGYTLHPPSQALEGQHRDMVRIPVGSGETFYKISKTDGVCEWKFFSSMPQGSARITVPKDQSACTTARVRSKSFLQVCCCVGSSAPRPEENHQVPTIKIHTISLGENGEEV
Experimental: Determination of investigated compounds' binding to α1A receptor was carried out according to the method described in [Michel AD, Loury DN and Whiting R1. Identification of a single α1A-adrenoceptor corresponding to the α1A-subtype in rat submaxillary gland. […] Prazosin is used as positive control.

[2] = target: T2, adrenergic receptor α1B (Rattus norvegicus, UniProt P15823); test: Radioligand binding to adrenergic receptor α1B ([3H] Prazosin, rat liver membranes); conditions: 10 µM ligand
T2 construct: membrane species from rat liver (rat of Wistar breed) are prepared; from tissue; host or cells: rat (Wistar) liver
T2 sequence (P15823 1-515): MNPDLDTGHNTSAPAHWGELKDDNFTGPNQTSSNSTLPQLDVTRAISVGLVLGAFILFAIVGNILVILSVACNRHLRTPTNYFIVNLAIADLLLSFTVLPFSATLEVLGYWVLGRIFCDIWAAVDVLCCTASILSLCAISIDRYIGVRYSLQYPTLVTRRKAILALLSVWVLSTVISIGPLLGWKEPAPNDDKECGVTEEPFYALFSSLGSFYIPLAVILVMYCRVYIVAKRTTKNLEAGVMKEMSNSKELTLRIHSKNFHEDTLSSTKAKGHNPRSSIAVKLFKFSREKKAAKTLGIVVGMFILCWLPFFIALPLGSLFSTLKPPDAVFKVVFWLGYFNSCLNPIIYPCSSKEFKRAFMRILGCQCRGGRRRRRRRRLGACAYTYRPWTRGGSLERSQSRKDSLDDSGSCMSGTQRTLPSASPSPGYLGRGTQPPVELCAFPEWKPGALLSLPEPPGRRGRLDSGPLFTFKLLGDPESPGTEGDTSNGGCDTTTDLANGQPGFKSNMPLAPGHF
Description: Species heterogeneity of hepatic α1A-, α1B-, and α1C-subtypes. Biochem Biophys Res Commun. […] Prazosin is used as positive control.

[3] = target: T3, human α1D receptor (Homo sapiens, UniProt P25100); test: Radioligand binding to adrenergic receptor α1D ([3H] Prazosin, HEK-293 membranes); conditions: 10 µM ligand
T3 construct: expressed in transfected cells; host or cells: HEK-293
T3 sequence (P25100 1-572): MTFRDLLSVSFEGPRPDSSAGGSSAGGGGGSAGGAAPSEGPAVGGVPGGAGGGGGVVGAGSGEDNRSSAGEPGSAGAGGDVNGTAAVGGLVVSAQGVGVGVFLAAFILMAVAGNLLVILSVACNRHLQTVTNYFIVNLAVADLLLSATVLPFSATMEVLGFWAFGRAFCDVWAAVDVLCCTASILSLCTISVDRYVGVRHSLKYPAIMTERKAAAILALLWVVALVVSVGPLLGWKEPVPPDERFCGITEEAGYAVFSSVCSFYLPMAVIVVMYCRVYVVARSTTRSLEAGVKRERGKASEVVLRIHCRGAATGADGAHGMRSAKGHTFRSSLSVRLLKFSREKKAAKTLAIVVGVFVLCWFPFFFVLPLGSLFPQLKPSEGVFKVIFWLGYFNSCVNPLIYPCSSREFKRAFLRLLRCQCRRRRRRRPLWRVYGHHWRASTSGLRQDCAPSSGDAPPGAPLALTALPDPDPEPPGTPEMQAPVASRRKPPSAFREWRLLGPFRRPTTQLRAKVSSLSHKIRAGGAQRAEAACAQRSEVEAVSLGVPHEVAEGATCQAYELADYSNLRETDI
Description: 6-C. […] For this purpose sDNA of human α1D receptor is expressed in HEK-293 cells, as it was described in [TL Theroux, TA Esbenshade, RD Peavy and KP Minneman. Coupling efficiencies of human alpha 1-adrenergic receptor subtypes: titration of receptor density and responsiveness with inducible and repressible expression vectors. Mol Pharmacol.; 50: 1376-1387, 1996]. […] Characterization of an α1D-adrenoceptor mediating the contractile response of rat aorta to noradrenaline. […] Prazosin is used as positive control.

[4] = target: T4, human α2A receptor (Homo sapiens, UniProt P08913); test: Radioligand binding to adrenergic receptor α2A ([3H] MK-912, Sf9 membranes); conditions: 10 µM ligand
T4 construct: expressed in transfected cells; host or cells: Sf9
T4 sequence (P08913 1-465): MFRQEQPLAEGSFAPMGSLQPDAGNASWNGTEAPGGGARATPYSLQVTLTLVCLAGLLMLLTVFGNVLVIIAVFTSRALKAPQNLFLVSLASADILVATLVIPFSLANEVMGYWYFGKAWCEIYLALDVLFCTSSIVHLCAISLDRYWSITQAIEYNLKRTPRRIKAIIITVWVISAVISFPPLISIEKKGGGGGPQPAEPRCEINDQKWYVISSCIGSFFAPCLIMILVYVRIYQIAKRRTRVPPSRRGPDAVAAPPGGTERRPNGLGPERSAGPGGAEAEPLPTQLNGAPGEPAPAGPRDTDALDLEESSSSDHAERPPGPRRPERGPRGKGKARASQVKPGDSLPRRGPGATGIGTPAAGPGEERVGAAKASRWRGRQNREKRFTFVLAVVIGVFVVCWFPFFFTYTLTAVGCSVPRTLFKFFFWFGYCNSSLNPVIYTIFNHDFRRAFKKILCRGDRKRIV
Description: For this purpose sDNA of human α2A receptor is expressed in Sf9 cells, as described in [Uhlen S, Porter AC and Neubig RR. […] J Pharmacol ExpTher. […] J Pharmacol ExpTher. […] Yohimbine is used as positive control.

[5] = test system: imidazoline receptor I2; test: Radioligand binding to imidazoline receptor I2 ([3H] Idazoxan, rat brain membranes); conditions: 10 µM ligand
[6] = target: T5, human H2 receptor (Homo sapiens, UniProt P25021); test: Radioligand binding to histamine receptor H2 ([125I] Aminopotentidine, CHO-K1 membranes); conditions: 10 µM ligand; 10 µM
T5 construct: expressed in transfected cells; host or cells: CHO-K1
Description: Proc Natl Acad Sci USA. 87(5): 1658-1662, 1990]. […] Proc Natl Acad Sci USA. 87(5): 1658-1662, 1990]. […] Tiotidine is used as positive control.

[7] = target: T6, serotonin receptor 5-HT1B (Rattus norvegicus, UniProt P28564); test: Radioligand binding to serotonin receptor 5-HT1B ([125I] cyanopindolol, rat brain cortex membranes); conditions: 10 µM ligand
T6 construct: membrane species are prepared from rat brains (Wistar) by homogenization of species of rat brain-cortices; from tissue; host or cells: rat (Wistar) brain cortex
Description: Serotonin is used as positive control.

[8] = target: T7, recombinant human 5-HT2A receptor (Homo sapiens, UniProt P28223); test: Radioligand binding to serotonin receptor 5-HT2A ([3H] Ketanserin, CHO-K1 membranes); conditions: 10 µM ligand
T7 construct: expressed in transfected cells; host or cells: CHO-K1
Description: 9-C. […] J Neurochem. […] Ketanserin is used as positive control.

[9] = target: T8, recombinant human 5-HT2B receptor (Homo sapiens, UniProt P41595); test: Radioligand binding to serotonin receptor 5-HT2B ([3H] Lysergic acid diethylamide, CHO-K1 membranes); conditions: 10 µM ligand
T8 construct: expressed in transfected cells; host or cells: CHO-K1

[10] = target: T9, recombinant human 5-HT2C receptor (Homo sapiens, UniProt P28335); test: Radioligand binding to serotonin receptor 5-HT2C ([3H] Mesulergine, CHO-K1 membranes); conditions: 10 µM ligand
T9 construct: expressed in transfected cells; host or cells: CHO-K1
T9 sequence (P28335 33-458): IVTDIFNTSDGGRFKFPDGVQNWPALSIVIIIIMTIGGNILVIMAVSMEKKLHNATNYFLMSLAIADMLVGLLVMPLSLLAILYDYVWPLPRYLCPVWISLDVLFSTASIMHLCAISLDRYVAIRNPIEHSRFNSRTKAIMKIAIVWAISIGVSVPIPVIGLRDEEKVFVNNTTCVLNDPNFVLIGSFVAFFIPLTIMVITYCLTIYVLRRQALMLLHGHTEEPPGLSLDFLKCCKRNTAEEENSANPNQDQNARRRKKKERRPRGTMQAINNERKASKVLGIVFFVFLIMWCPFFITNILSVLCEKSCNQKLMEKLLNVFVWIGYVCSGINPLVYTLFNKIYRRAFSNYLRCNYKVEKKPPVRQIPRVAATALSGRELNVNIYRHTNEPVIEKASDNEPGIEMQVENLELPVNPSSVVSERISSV
Description: J Neurochem. 69: 1449 - 1458, 1997]. […] SB242084 is used as positive control.

[11] = test system: male mice of BALB/c line; test: Passive Avoidance of mice in the Shuttle Chamber, memory disturbed by Scopolamine; assay type: in vivo; conditions: Scopolamine 0.3 mg/kg, injected 30 minutes before training; figures 1-3
Experimental: Example 14. […] A shuttle chamber (Ugo Basile, Italy) consisted of two sections was used. […] The sections were connected through a hole which could be overlapped by a vertical door. The floor was made of transverse metal bars on which DC current impulses could be fed. Experiments were carried out in aged male mice of BALB/c line weighing 20-24 grams.
Each group consisted of at least 8 animals. Animal was placed in light section, and latent period of the first entry into dark chamber was registered. Then the vertical door was closed and the animal was punished by 0.6 mA DC current for 3 seconds. After that it was taken back to its homecage. In 22-24 hours the same animal was placed again in light section of the shuttle chamber and latent period of its first entry into dark section, the total time of its stay in light section, and the number of entries into dark section, were registered. Each monitoring lasted for 5 minutes.
Testing was carried out during the day time in isolated laboratory using white noise at level of about 70 decibel above human hearing threshold.
Scopolamine causes the disturbance of training (memory loss) that results in […].

T8 sequence (P41595 whole entry): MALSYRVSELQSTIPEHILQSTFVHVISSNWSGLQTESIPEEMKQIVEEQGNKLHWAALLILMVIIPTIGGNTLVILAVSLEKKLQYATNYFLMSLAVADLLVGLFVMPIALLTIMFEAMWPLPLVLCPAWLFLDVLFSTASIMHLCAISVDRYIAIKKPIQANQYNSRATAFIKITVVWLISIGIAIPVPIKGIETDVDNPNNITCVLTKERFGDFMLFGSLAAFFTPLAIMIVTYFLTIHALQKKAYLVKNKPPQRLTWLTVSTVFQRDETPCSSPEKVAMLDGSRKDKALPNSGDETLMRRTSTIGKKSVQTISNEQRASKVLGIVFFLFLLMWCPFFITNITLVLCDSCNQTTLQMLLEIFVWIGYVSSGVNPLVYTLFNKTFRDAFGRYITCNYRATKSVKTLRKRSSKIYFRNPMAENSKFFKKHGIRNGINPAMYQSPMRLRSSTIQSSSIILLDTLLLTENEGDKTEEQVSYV
T6 sequence (P28564 whole entry): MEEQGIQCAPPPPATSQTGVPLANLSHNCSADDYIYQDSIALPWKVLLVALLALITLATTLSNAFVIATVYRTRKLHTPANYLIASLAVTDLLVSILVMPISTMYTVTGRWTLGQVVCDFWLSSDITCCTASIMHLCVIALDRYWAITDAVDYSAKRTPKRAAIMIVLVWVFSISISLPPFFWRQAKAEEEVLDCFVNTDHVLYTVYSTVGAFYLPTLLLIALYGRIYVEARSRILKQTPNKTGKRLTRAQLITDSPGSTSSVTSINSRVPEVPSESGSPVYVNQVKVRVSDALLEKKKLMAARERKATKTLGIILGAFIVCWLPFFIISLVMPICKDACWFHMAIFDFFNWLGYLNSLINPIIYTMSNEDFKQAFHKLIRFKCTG
T7 sequence (P28223 whole entry): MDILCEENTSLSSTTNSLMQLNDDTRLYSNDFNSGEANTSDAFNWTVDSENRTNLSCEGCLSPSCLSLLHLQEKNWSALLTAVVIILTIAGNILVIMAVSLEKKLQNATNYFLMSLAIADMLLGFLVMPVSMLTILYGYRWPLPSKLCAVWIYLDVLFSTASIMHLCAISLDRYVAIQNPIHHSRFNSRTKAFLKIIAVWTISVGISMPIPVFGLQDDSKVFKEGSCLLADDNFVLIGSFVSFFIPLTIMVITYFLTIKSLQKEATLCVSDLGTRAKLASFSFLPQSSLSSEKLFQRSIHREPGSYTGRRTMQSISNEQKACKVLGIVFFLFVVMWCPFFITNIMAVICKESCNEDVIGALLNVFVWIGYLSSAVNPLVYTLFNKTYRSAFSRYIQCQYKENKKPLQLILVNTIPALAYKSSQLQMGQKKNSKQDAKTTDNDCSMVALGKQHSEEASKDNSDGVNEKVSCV
T5 sequence (P25021 whole entry): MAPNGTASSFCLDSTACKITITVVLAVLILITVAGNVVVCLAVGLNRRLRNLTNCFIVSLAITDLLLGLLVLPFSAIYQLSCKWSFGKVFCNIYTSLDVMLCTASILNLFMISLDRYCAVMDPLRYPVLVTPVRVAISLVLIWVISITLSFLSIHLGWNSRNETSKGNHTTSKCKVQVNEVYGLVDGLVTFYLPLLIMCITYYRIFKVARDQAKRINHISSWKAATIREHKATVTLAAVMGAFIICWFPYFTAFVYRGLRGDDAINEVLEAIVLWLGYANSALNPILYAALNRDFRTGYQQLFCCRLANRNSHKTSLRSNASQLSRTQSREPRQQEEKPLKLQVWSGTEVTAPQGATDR

SMILES	α-Adrenoceptor, % inhibition α1A [1] [%]	α-Adrenoceptor, % inhibition α1B [2] [%]	α-Adrenoceptor, % inhibition α1D [3] [%]	% inhibition [5] [%]	further results
Cc1ccc2c(c1)c1c(n2CCc2ccc(C)nc2)CCCN(C)C1 [1.2.2(4-1)]	80	85	68	80	α-Adrenoceptor, % inhibition α2A [4]: 79%
Cc1ccc2c(c1)c1c(n2CCc2ccc(C)nc2)CCN(C)C1 [1.1.2(4-5)·1/2NDSA, 2,8-dimethyl-5-[2-(4-methylpyridin-3-yl)ethyl]-1,2,3,4-tetrahydro-1H-pyrido[4,3-b]indole naphtalene-1,5-disulfonate]					Histamine receptors, % inhibition H2 [6]: 100%
Cc1ccc2c(c1)c1c(n2/C=C\c2ccccc2)CCN(C)C1 [1.1(6)]					5-HT1B % inhibition [7]: 86%; 5-HT2A % inhibition [8]: 100%; 5-HT2B % inhibition [9]: 98%; 5-HT2C % inhibition [10]: 101%; enhancement of memory disturbed by Scopolamine [11]: improve memory
Cc1ccc2c(c1)c1c(n2CCc2ccncc2)CCCN(C)C1 [1.2.2(5-2)]	74	89	68	72	
